What all share (type): in vivo
Experiment [1] has as its system Amaranthus retroflexus L. (pigweed). Put plainly: Greenhouse pre-emergence treatment of Amaranthus retroflexus. Conditions: application rate 1000 g/ha, scale 0 to 100. An excerpt: The seeds of the test plants were sown separately for each species. For the pre-emergence treatment, the active ingredients, which had been suspended or emulsified in water, were applied directly after sowing by means of finely distributing nozzles. The containers were irrigated gently to promote germination and growth and subsequently covered with transparent plastic hoods until the plants had rooted. This cover caused uniform germination of the test plants, unless this has been impaired by the active ingredients. Depending on the species, the plants were kept at 10-25° C. or 20-35° C. The test period extended over 2 to 4 weeks. During this time, the plants were tended, and their response to the individual treatments was evaluated. Evaluation was carried out using a scale from 0 to 100. 100 means no emergence of the plants, or complete destruction of at least the aerial moieties, and 0 means no damage, or normal course of growth. A good herbicidal activity is given at values of at least 70 and a very good herbicidal activity is given at values of at least 85. The plants used in the greenhouse experiments belonged to the following species: [table]

Experiment [2] concerns Echinochloa crus-galli (barnyard grass). Put plainly: Greenhouse post-emergence treatment of Echinochloa crus-galli. Conditions: application rate 1000 g/ha, scale 0 to 100. An excerpt: (§1) The seeds of the test plants were sown separately for each species. For the post-emergence treatment, the test plants were first grown to a height of 3 to 15 cm, depending on the plant habit, and only then treated with the active ingredients which had been suspended or emulsified in water. For this purpose, the test plants were either sown directly and grown in the same containers, or they were first grown separately as seedlings and transplanted into the test containers a few days prior to treatment. Depending on the species, the plants were kept at 10-25° C. or 20-35° C. The test period extended over 2 to 4 weeks. During this time, the plants were tended, and their response to the individual treatments was evaluated. Evaluation was carried out using a scale from 0 to 100. 100 means no emergence of the plants, or complete destruction of at least the aerial moieties, and 0 means no damage, or normal course of growth. A good herbicidal activity is given at values of at least 70 and a very good herbicidal activity is given at values of at least 85. The plants used in the greenhouse experiments belonged to the following species: [table]

Experiment [3] concerns Abutilon theophrasti (velvetleaf). The experiment can be described thus: Greenhouse post-emergence treatment of Abutilon theophrasti. Conditions: application rate 1000 g/ha, scale 0 (no damage) to 100 (complete destruction).
From the text: as §1

Consider `CON=C1CCS(=O)(=O)c2ccc(C(=O)Nc3ncnn3C)c(C)c21` [I.A-47], for which the results for the “damage [%]” value in experiment [1], in experiment [2] and in experiment [3] were 70%, 95% and 100%, respectively.
For `CON=C1CCS(=O)(=O)c2ccc(C(=O)Nc3nnnn3C)c(C)c21` [V.A-47], in that order: 100%, 100% and 100%.

Source of the values: patent US20150291570A1, “Substituted N-(tetrazol-5-yl)- and N-(triazol-5-yl)arylcarboxamide compounds and their use as herbicides” (BASF SE, priority 2012, published 2015).
